Assay results as given in patent US7902375B2, “5-phenyl-4-methyl-thiazol-2-yl-amine derivatives as inhibitors of phosphatidylin ositol 3 kinase enzymes (PI13) for treatment of inflammatory diseases” (Novartis AG, priority 2003, dated 2011).

Biological target: T1, human PI3Kγ (recombinant GST-p110γ) (Homo sapiens, UniProt P48736)
T1 construct: Residues 38-1102 of human PI3Kγ are subcloned into the BamH1 and EcoR1 sites of the transfer vector pAcG2T; made in house; host or cells: Sf9 (Spodoptera frugiperda) insect cells, baculovirus
T1 sequence (P48736 38-1102): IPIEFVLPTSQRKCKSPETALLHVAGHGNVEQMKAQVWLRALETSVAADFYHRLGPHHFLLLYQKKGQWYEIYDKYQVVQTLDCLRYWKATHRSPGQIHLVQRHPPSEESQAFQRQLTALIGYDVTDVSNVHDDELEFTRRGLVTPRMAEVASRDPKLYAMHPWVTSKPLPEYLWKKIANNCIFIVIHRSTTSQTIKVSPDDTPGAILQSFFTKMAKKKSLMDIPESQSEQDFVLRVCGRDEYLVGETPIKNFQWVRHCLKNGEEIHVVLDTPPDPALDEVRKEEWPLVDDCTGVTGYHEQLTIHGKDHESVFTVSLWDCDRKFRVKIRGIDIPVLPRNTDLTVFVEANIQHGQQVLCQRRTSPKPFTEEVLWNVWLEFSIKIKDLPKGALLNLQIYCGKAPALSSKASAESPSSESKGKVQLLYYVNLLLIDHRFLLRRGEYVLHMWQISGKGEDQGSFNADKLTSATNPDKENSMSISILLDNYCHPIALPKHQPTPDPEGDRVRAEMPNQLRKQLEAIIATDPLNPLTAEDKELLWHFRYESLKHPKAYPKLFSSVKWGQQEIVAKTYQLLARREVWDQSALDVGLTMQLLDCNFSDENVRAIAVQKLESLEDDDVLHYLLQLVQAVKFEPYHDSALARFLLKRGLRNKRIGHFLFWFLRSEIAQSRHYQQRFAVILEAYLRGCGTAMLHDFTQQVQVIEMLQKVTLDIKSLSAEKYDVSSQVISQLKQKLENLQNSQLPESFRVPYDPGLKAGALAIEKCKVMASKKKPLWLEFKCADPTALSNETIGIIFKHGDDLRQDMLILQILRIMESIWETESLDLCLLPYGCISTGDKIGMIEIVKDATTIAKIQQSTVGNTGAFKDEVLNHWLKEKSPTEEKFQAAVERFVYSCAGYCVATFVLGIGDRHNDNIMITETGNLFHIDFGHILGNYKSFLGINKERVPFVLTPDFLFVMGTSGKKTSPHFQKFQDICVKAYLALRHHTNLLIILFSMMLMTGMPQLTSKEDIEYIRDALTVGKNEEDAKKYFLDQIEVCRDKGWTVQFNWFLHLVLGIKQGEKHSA
Experiment: in vitro kinase assay (Scintillation Proximity Assay), PI3K gamma isoform
Assay type: biochemical
Conditions: SPA, phosphatidylinositol substrate, 60 minutes room temperature
Description: To express the recombinant protein, Sf9 (Spodoptera frugiperda 9) insect cells are routinely maintained at densities between 3×10^5 and 3×10^6 cells/ml in serum containing TNMFH medium (Sigma). Sf9 cells, at a density of 2×10^6 are infected with human GST-PI3KγΔ34 baculovirus at a multiplicity of infection (m.o.i.) of 1 for 72 hours. The infected cells are harvested by centrifugation at 1400 g for 4 minutes at 4° C. and the cell pellets are frozen at −80° C. […] Cell lysate (supernatant) is added (usually as 50 ml lysate to 1 ml GST resin in 50 ml tubes) and gently rotated on a mixer at 4° C. for 2-3 hours. The unbound flow through sample is collected by centrifugation at 1000 g for 5 minutes at 4° C. using a DENLEY™ centrifuge. The 1 ml GST resin containing bound material is transferred to a 15 ml FALCON™ centrifuge tube for subsequent washing and elution steps. Firstly a series of 3 cycles of washings (mixing by gentle inversion) is performed with 15 ml ice cold wash Buffer A (50 mM Tris-HCl pH 7.5, 1% Triton X-100, 2 mM DTT) interspersed with centrifugation at 1000 g for 5 minutes at 4° C. A final single wash step is performed with 15 ml ice cold wash Buffer B (50 mM Tris-HCl pH 7.5, 2 mM DTT) and then centrifuged at 1000 g for 5 minutes at 4° C. The washed GST resin is finally eluted with 4 cycles of 1 ml ice cold elution buffer (50 mM Tris-HCl pH 7.5, 10 mM reduced glutathione, 2 mM DTT, 150 mM NaCl, 1 mM NaF, 50% ethylene glycol and protease inhibitors) interspersed with centrifugation at 1000 g for 5 minutes at 4° C. Samples are aliquoted and stored at −20° C.
An in vitro kinase assay was established that measures the transfer of the terminal phosphate of adenosine triphosphate to phosphatidylinositol. The kinase reaction is performed in a white 96 well microtitre plate as a Scintillation Proximiy Assay. […] The reaction is started by the addition of 20 μl of enzyme mix (40 mM Tris, 200 mM NaCl, 2 mM EGTA containing recombinant GST-p110γ).

Structure (SMILES) | IC50
Cc1nc(NC(=O)NCc2nnn[nH]2)sc1-c1ccc(S(C)(=O)=O)c(F)c1 [Example 124, 1-[5-(3-Fluoro-4-methanesulfonyl-phenyl)-4-methyl-thiazol-2-yl]-3-(1H-tetrazol-5-ylmethyl)-urea] | 7 nM
CCn1nnc(CNC(=O)Nc2nc(C)c(-c3ccc(S(C)(=O)=O)c(F)c3)s2)n1 [Example 131, 1-(2-Ethyl-2H-tetrazol-5-ylmethyl)-3-[5-(3-fluoro-4-methanesulfonyl-phenyl)-4-methyl-thiazol-2-yl]-urea] | 17 nM
Cc1nc(NC(=O)NCC(=O)N(C)C(C)C)sc1-c1ccc(S(C)(=O)=O)c(F)c1 [Example 138, 2-{3-[5-(3-Fluoro-4-methanesulfonyl-phenyl)-4-methyl-thiazol-2-yl]-ureido)-N-isopropyl-N-methyl-acetamide] | 18 nM
CCC(C)(C)NC(=O)CCNC(=O)Nc1nc(C)c(-c2ccc(S(C)(=O)=O)c(F)c2)s1 [Example 145, N-(1,1-Dimethyl-propyl)-3-{3-[5-(3-fluoro-4-methanesulfonyl-phenyl)-4-methyl-thiazol-2-yl]-ureido}-propionamide] | 17 nM
Cc1nc(NC(=O)NCCc2nnn(C(C)C)n2)sc1-c1ccc(S(C)(=O)=O)c(F)c1 [Example 150, 1-[5-(3-Fluoro-4-methanesulfonyl-phenyl)-4-methyl-thiazol-2-yl]-3-[2-(2-isopropyl-2H-tetrazol-5-yl)-ethyl]-urea] | 56 nM
